Laboratory results published in patent publication US8202866B2, “Ortho-aminoanilides for the treatment of cancer” (Hoffmann-La Roche Inc., priority 2008, dated 2012).

Experiments:
[1] = system: p21 promoter-luciferase construct in HeLa cells; experiment: p21 reporter gene induction assay, HeLa cells transfected with p21 promoter-luciferase construct; assay type: cell-based; conditions: compound at 3 micromolar; 15 hours incubation; relative to SNDX-275 (=100%)
Protocol: The novel compounds of the present invention were tested for their ability to induce p21 gene expression using a reporter gene assay involving HeLa cells transfected with a p21 promoter-luciferase construct. The p21 promoter contained the Sp1/Sp3 binding site for HDAC but not the upstream p53 binding site. Briefly, the day before transfection, HeLa cells were seeded at 11,000 cells/well in a 96-well culture plate and incubated at 37 degrees Celsius in 5% CO2 overnight. For transfection, the medium was removed and replaced with 100 microliters/well transfection media previously prepared as follows: 5 microliters serum-free DMEM, 0.15 microliters Fugene 6 reagent, 40 ng p21-luc, 10 ng GFP were mixed gently and incubated at room temperature for 30 minutes; then 98 microliters DMEM (with 10% FBS, 1% penicillin and streptomycin) was added to the DNA:Fugene 6 reagent complex and mixed gently. After incubating the cells for 24 hours at 37 degrees Celsius in 5% CO2, fresh media and test compounds were added to the wells and the cells further incubated for 15 hours at 37 degrees Celsius in 5% CO2. Cells were lysed by adding 80 microliters/well of a cell culture lysis reagent (Promega). 50 microliters of each lysate was taken for GFP detection using an excitation wavelength of 486 nm and detection at 527 nm. 100 microliters Luciferase assay reagent (Promega) was then added to every 20 microliters cell lysate for luminometer detection. […] Induction activity for specific representative compounds can be found in Table 7.

[2] = system: SMMC-7721 liver cancer cells; experiment: Antiproliferative activity, in vitro growth inhibition assay (MTS/WST), SMMC-7721; assay type: cell-based; conditions: Homo sapiens, 72 hours; for IC90: concentration required for 90% growth inhibition, read-out: GI90 (micromolar) SMMC-7721; for GI50: read-out: GI50 (micromolar) SMMC-7721
Protocol: The novel compounds of the present invention were tested for their ability to inhibit growth of various cancer cell lines using in vitro growth inhibition assays described below.
Cells were seeded in 96-well culture plates (200 microliters/well at different seeding concentrations depending on cell type) and incubated overnight at 37 degrees Celsius in 5% CO2. After adding compound dilutions to the cells (DMSO concentration kept below 0.5%), the cells were incubated at 37 degrees Celsius in 5% CO2 for 72 hours. The effects on proliferation were determined by addition of MTS reagent (Promega) according to the manufacturer's instruction, followed by incubation for 2 hours at 37 degrees Celsius in 5% CO2, and finally recording the absorbance at 490 nm using an ELISA plate reader.
Similar to MTS assay except that the developer is the CCK-8 reagent (Dojindo) and the plate reader is set to 450 nm absorbance.
GI50 and GI90 values against SMMC-7721 liver cancer cells for specific representative compounds can be found in Table 7.

Nc1ccccc1NC(=O)/C=C/c1ccc(C(CCN2CCOCC2)C(=O)Nc2ccc(Br)cc2)cc1 (stereo not drawn) [Example 6-2, 2-{4-[(E)-2-(2-Amino-phenylcarbamoyl)-vinyl]-phenyl}-N-(4-bromo-phenyl)-4-morpholin-4-yl-butyramide]
p21 (RP3): relative induction potency compared with SNDX-275 [1]: 233% | IC90 [2]: 3.1 µM | GI50 [2]: 1 µM

Nc1ccccc1NC(=O)/C=C/c1ccc(C(CCCN2CCCCC2)C(=O)Nc2ccc(Br)cc2)cc1 (stereo not drawn) [Example 9-3, 2-{4-[(E)-2-(2-Amino-phenylcarbamoyl)-vinyl]-phenyl}-5-piperidin-1-yl-pentanoic acid (4-bromo-phenyl)-amide]
p21 (RP3): relative induction potency compared with SNDX-275 [1]: 305% | IC90 [2]: 2.1 µM | GI50 [2]: 0.8 µM

Nc1ccccc1NC(=O)/C=C/c1ccc(C(CCCN2C[C@@H]3C[C@H]2CO3)C(=O)Nc2ccc(Br)cc2)cc1 (stereo partly drawn) [Example 9-2, 2-{4-[(E)-2-(2-Amino-phenylcarbamoyl)-vinyl]-phenyl}-5-(1S,4S)-2-oxa-5-aza-bicyclo[2.2.1]hept-5-yl-pentanoic acid (4-bromo-phenyl)-amide]
p21 (RP3): relative induction potency compared with SNDX-275 [1]: 74% | IC90 [2]: 1.5 µM | GI50 [2]: 0.7 µM

Nc1ccccc1NC(=O)/C=C/c1ccc(C(CCN2C[C@@H]3C[C@H]2CO3)C(=O)Nc2ccc(Br)cc2)cc1 (stereo partly drawn) [Example 6, 2-{4-[(E)-2-(2-Amino-phenylcarbamoyl)-vinyl]-phenyl}-N-(4-bromo-phenyl)-4-(1S,4S)-2-oxa-5-aza-bicyclo[2.2.1]hept-5-yl-butyramide]
p21 (RP3): relative induction potency compared with SNDX-275 [1]: 212% | IC90 [2]: 2.7 µM | GI50 [2]: 0.8 µM

Nc1ccccc1NC(=O)/C=C/c1ccc(C(CCCN2CCOCC2)C(=O)Nc2ccc(Br)cc2)cc1 (stereo not drawn) [Example 9, 2-{4-[(E)-2-(2-Amino-phenylcarbamoyl)-vinyl]phenyl}-5-morpholin-4-yl-pentanoic acid (4-bromo-phenyl)-amide]
p21 (RP3): relative induction potency compared with SNDX-275 [1]: 253% | IC90 [2]: 2.9 µM | GI50 [2]: 1.3 µM

CC(C)c1ccc(NC(=O)C(CCCN2C[C@@H]3C[C@H]2CO3)c2ccc(/C=C/C(=O)Nc3ccccc3N)cc2)cc1 (stereo partly drawn) [Example 9-4, 2-{4-[(E)-2-(2-Amino-phenylcarbamoyl)-vinyl]-phenyl}-5-(1S,4S)-2-oxa-5-aza-bicyclo[2.2.1]hept-5-yl-pentanoic acid (4-isopropyl-phenyl)-amide]
p21 (RP3): relative induction potency compared with SNDX-275 [1]: 155% | IC90 [2]: 4.9 µM | GI50 [2]: 1.4 µM

CN1CCCC1CCC(C(=O)Nc1ccc(Br)cc1)c1ccc(/C=C/C(=O)Nc2ccccc2N)cc1 (stereo not drawn) [Example 25, 2-{4-[(E)-2-(2-Amino-phenylcarbamoyl)-vinyl]-phenyl}-N-(4-bromo-phenyl)-4-(1-methyl-pyrrolidin-2-yl)-butyramide]
p21 (RP3): relative induction potency compared with SNDX-275 [1]: 199% | IC90 [2]: 2.5 µM | GI50 [2]: 0.8 µM

CCN(CC)C1CCN(CC(C(=O)Nc2ccc(Cl)cc2)c2ccc(/C=C/C(=O)Nc3ccccc3N)cc2)C1 (stereo not drawn) [Example 31, (E)-N-(2-Amino-phenyl)-3-{4-[1-(4-chloro-phenylcarbamoyl)-2-(3-diethylamino-pyrrolidin-1-yl)-ethyl]phenyl}-acrylamide]
p21 (RP3): relative induction potency compared with SNDX-275 [1]: 243% | IC90 [2]: 3.3 µM | GI50 [2]: 0.9 µM

Nc1ccccc1NC(=O)/C=C/c1ccc(C(CCCN2CCCC(O)C2)C(=O)Nc2ccc(Br)cc2)cc1 (stereo not drawn) [Example 9-5, 2-{4-[(E)-2-(2-Amino-phenylcarbamoyl)-vinyl]-phenyl}-5-(3-hydroxy-piperidin-1-yl)-pentanoic acid (4-bromo-phenyl)-amide]
p21 (RP3): relative induction potency compared with SNDX-275 [1]: 127% | IC90 [2]: 3.2 µM | GI50 [2]: 1.1 µM

Nc1ccccc1NC(=O)c1ccc(CNC(=O)OCc2cccnc2)cc1 [SNDX-275, reference compound]
p21 (RP3): relative induction potency compared with SNDX-275 [1]: 100% | IC90 [2]: 10.5 µM | GI50 [2]: 3.5 µM
